These results are taken from publication PMC7513592 (RSC Medicinal Chemistry, 2020).

One data set deals with T1, YFP-TRPV6 (Homo sapiens, UniProt Q9H1D0).
T1 construct: expressed in transfected cells; host or cells: HEK293 (DSMZ), transient (TransFectin)
T1 sequence (Q9H1D0 41-765 limits assumed): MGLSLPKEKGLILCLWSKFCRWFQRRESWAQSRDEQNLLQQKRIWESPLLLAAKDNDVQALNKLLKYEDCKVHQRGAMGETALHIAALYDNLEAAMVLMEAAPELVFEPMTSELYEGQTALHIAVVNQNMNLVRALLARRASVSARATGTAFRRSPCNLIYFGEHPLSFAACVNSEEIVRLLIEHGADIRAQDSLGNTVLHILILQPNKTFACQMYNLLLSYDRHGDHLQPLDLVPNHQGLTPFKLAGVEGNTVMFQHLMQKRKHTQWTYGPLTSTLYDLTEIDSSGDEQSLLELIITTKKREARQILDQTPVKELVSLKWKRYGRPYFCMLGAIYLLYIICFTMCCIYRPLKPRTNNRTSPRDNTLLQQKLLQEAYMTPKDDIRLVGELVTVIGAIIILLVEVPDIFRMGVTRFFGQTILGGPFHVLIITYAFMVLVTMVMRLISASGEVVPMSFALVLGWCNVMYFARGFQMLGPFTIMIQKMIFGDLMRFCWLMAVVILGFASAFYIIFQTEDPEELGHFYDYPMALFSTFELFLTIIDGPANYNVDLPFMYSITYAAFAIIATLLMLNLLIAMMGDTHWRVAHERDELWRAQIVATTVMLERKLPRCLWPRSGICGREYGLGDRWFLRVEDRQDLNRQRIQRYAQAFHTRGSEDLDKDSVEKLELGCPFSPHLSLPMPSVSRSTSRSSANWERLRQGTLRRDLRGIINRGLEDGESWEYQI
As to the kind of experiment: Whole-cell electrophysiology on YFP-TRPV6 transfected HEK293 cells. The class given is cell-based. The conditions noted are these: 10 mM Ca2+, read-out: inhibition of TRPV6 current densities. The protocol:
Electrophysiological experiments on YFP-TRPV6 transiently transfected HEK293 cells confirmed the activity of 39 on TRPV6. Initially, 10 mM Ca^2+ solution was applied and after the currents reached a plateau, the inhibitors at 0.1 and 10 μM were added. […] In comparison to the previously described 1, the inhibition by 39 occurred at a slower rate and was less pronounced.
HEK293 cells (DSMZ, Germany) were cultivated in DMEM medium containing 10% FCS, 100 μg/ml streptomycin and 100 U/ml penicillin. 24 h before the experiments, a transient transfection with the peYFP-C1 TRPV6 plasmid was performed by utilising TransFectinTM Lipid Reagent (Bio-Rad).
Electrophysiological experiments were conducted at room temperature (20 - 24°C) in the whole-cell configuration with an Ag/AgCl reference electrode. Voltage ramps over a time period of 200 ms from -90 to +90 mV were performed every 5 s with a holding potential of 50 mV. The internal pipette solution consisted of 145 mM Cs-methanesulfonate, 8 mM NaCl, 5 mM MgCl2, 10 mM HEPES and 20 mM EGTA, pH 7.2. The extra cellular solution (10 mM Ca2+) contained: 145 mM NaCl, 5 mM CsCl, 1 mM MgCl 2, 10 mM HEPES, 10 mM glucose and 10 mM CaCl 2, pH 7.4. The leak-correction of the currents were conducted by subtraction of the remaining leak currents after La 3+ bock. The liquid junction potential was determined as 12 mV, though applied voltages were not corrected. […]

The subject of data set [1] is SKOV3, T47D, MCF-7, MDA-MB-231, HEK293 and HEK-hTRPV6 cells. Kind of data set: Antiproliferative activity, XTT, all six cell lines. Format: cell-based, human. The conditions noted are these: 6 days, up to 100 µM. The source says:
Here, we compared the effects of 1 and 39 on SKOV3 and T47D, as well as on MCF-7 and MDA-MB-231 as two additional breast cancer cell lines with low levels of TRPV6.[13],[44] Previous studies have shown that RNA silencing (siRNA) of TRPV6 reduces T47D cell proliferation.[11],[13]
Note that HEK-hTRPV6 was more susceptible to 1 toxicity than HEK293 wt cells, which might be related to the fact that HEK-hTRPV6 overexpressing cells proliferate faster than HEK293 wt cells in a Ca^2+-dependent manner (Table S3 ^†).[46] […] This highlights the need for future studies to uncover the precise role of TRPV6 in cancer progression.
12. Antiproliferative activity
Unless specified cell culture reagents were obtained from Gibco, Life Technology, Switzerland. MCF -7 (human mammary adenocarcinoma), MDA-MB-231 (human mammary adenocarcinoma) were obtained from the ATCC cell bank. T47D (human mammary ductal carcinoma) cell line was obtained from NIH cell collection. These cells were grown in RPMI medium complemented with 10% FBS, 2mM L-Glutamine, 100 U/ml Penicillin and 100 μg/ml Streptomycin (Sigma) and 1% non-essential amino acids (Bioconcept, Switzerland). HEK293 (human embryonic kidney) and SKOV-3 (human ovary adenocarcinoma) cell lines were obtained from the ATCC cell bank. HEK-hTRPV6 and HEK293 and SKOV-3 were grown in DMEM medium supplemented with 10% FBS, 2mM L-Glutamine, 100 U/ml Penicillin and 100 μg/ml Streptomycin (Sigma) and 1% non-essential amino acids (Bioconcept, Switzerland).
The XTT assay was used to evaluate cell proliferation. Cells were plated at a density of 5 x 10^3 cells/well in 96-well plates and were incubated at 37 °C for 24 h. On the following day, the medium was carefully […]
Doxorubicin (10 µM) and DMSO (0.01 %) were used as positive and negative controls, respectively. All the treatments used the original cell medium (RPMI or DMEM), depending on the cell line. Cells were incubated for a total of 6 days at 37 °C with the medium (treatment and controls) being replaced by a freshly prepared solution every 48 h. Then, 25 μL of XTT (with 1.25 % of PMS) was added to each well and incubated at 37 °C for 2 h. Subsequently, the absorbance was read at 650 nm and subtracted from the […]
The resulting subtracted absorbance for each compound concentration (At) was expressed as a percentage of viable cells relative to the negative control (Ab), and the percentage of viable cells was plotted and the inhibition curves obtained by non-linear regression using the built-in log(inhibitor) vs. response-variable slope function (GraphPad® Prism, v. 5.0, San Diego, CA, US).
. Data shown are mean ± SEM (n =
3/concentration) of at least 3 independent experiments. ND = not determined, no inhibition of cell
In general terms: Tetrazolium dyes change colour on reduction, which living cells bring about.

“Also recorded” adds a separate entry of the source.

For the compound `O=c1ccc(CN2CCN([C@H]3CC[C@@](O)(c4cccc(C(F)(F)F)c4)CC3)CC2)c[nH]1` [compound 39], at YFP-TRPV6 (0.1 μM), the inhibition (as a rule, the relative decrease from the control value, in per cent) at 0.1 µM worked out at 30.8 ± 5.1%. On YFP-TRPV6 (10 μM), the inhibition at 10 µM was found to be 88.2 ± 2%. For the same compound, the figures for the “effect on cell proliferation / cellular toxicity” value in data set [1] and in data set [1] (listed as 3OG) were “did not observe any significant decrease in proliferation; also recorded: does not display any measurable cellular toxicity” and “does not exhibit any non-specific toxicity effects”, respectively.
